Results published in ChEMBL document CHEMBL2406918, “Controlling persister cells of Pseudomonas aeruginosa PDO300 by (Z)-4-bromo-5-(bromomethylene)-3-methylfuran-2(5H)-one” (2013).
Calls of active or inactive are those of the source. The calls are words filed in the database; no cut-off is given here.

Key:
[1] = tested on: Pseudomonas aeruginosa; test: Bactericidal activity against Pseudomonas aeruginosa PDO300 persister cells at 5 ug/ml after 2 hrs by drop plate method; assay type: functional
[2] = tested on: Pseudomonas aeruginosa; test: Antibacterial activity against Pseudomonas aeruginosa PDO300 assessed as viable biofilm cells at 30 ug/ml after 24 hrs by drop plate method (reference value: 0.0005 +/- 0.0008%); assay type: functional
[3] = tested on: Pseudomonas aeruginosa; test: Antibacterial activity against Pseudomonas aeruginosa PDO300 assessed as reduction in viable persister cells in biofilm at 20 to 60 ug/ml after 18 hrs by drop plate method relative to control; assay type: functional
[4] = tested on: Pseudomonas aeruginosa; test: Antibacterial activity against Pseudomonas aeruginosa PDO300 assessed as reduction in persistence after 12 hrs by drop plate method; assay type: functional, organism-based
[5] = tested on: Pseudomonas aeruginosa; test: Bactericidal activity against Pseudomonas aeruginosa PDO300 persister cells at 5 to 50 ug/ml after 2 hrs by drop plate method; assay type: functional, organism-based
[6] = tested on: Pseudomonas aeruginosa; test: Antibacterial activity against Pseudomonas aeruginosa PDO300 assessed as reduction in persister cells in biofilm after 18 hrs by drop plate method; assay type: functional, organism-based
[7] = tested on: Pseudomonas aeruginosa; test: Antibacterial activity against Pseudomonas aeruginosa PDO300 assessed as reduction in planktonic cells in biofilm after 18 hrs by drop plate method; assay type: functional, organism-based
[8] = tested on: Pseudomonas aeruginosa; test: Antibacterial activity against Pseudomonas aeruginosa PDO300 assessed as reduction in biofilm formation after 18 hrs by drop plate method; assay type: functional, organism-based
[9] = tested on: Pseudomonas aeruginosa; test: Antibacterial activity against Pseudomonas aeruginosa PDO300 assessed as reduction in persistence up to 30 ug/ml after 5 hrs by drop plate method; assay type: functional, organism-based
[10] = tested on: Pseudomonas aeruginosa; test: Antibacterial activity against Pseudomonas aeruginosa PDO300 assessed as reduction in biofilm formation at 60 ug/ml after 18 hrs by drop plate method relative to control; assay type: functional; parameters: scale not given: the % may be the effect or the level left
[11] = tested on: Pseudomonas aeruginosa; test: Antibacterial activity against Pseudomonas aeruginosa PDO300 assessed as reduction in persistence at 30 ug/ml after 12 hrs by drop plate method relative to control; assay type: functional; parameters: scale not given: the % may be the effect or the level left
[12] = tested on: Pseudomonas aeruginosa; test: Antibacterial activity against Pseudomonas aeruginosa PDO300 assessed as reduction in viable persister cells in planktonic population of biofilm at 60 ug/ml after 18 hrs by drop plate method relative to control; assay type: functional
[13] = tested on: Pseudomonas aeruginosa; test: Antibacterial activity against Pseudomonas aeruginosa PDO300 assessed as growth inhibition at 5 to 30 ug/mL after 12 hrs; assay type: functional, organism-based
[14] = tested on: Pseudomonas aeruginosa; test: Antibacterial activity against Pseudomonas aeruginosa PDO300 assessed as effect on total number of suspended planktonic cells at 60 ug/ml after 18 hrs by drop plate method relative to control; assay type: functional, organism-based
[15] = tested on: Pseudomonas aeruginosa; test: Antibacterial activity against Pseudomonas aeruginosa PDO300 assessed as persister cell death in viable biofilm at 5 to 30 ug/mL after 24 hrs by drop plate method; assay type: functional, organism-based
[16] = tested on: Pseudomonas aeruginosa; test: Antibacterial activity against Pseudomonas aeruginosa PDO300 assessed as reduction in viable biofilm cells after 24 hrs by drop plate method; assay type: functional, organism-based
[17] = tested on: Pseudomonas aeruginosa; test: Bactericidal activity against Pseudomonas aeruginosa PDO300 persister cells at 50 ug/ml after 2 hrs by drop plate method; assay type: functional, organism-based
[18] = tested on: Pseudomonas aeruginosa; test: Antibacterial activity against Pseudomonas aeruginosa PDO300 assessed as viable persister cells at 30 ug/ml after 24 hrs by drop plate method; assay type: functional, organism-based
[19] = tested on: Pseudomonas aeruginosa; test: Antibacterial activity against Pseudomonas aeruginosa PDO300 assessed as reduction in viable persister cells in planktonic population of biofilm after 18 hrs by drop plate method; assay type: functional, organism-based
[20] = tested on: Pseudomonas aeruginosa; test: Antibacterial activity against Pseudomonas aeruginosa PDO300 assessed as cell viability up to 30 ug/ml after 5 hrs by drop plate method; assay type: functional, organism-based
[21] = tested on: Pseudomonas aeruginosa; test: Antibacterial activity against Pseudomonas aeruginosa PDO300 assessed as cell death in planktonic phase at 30 ug/ml after 24 hrs by drop plate method; assay type: functional, organism-based
[22] = tested on: Escherichia coli; test: Antibacterial activity against Escherichia coli RP437 assessed as effect on persister cells at pH > 7; assay type: functional, organism-based

CC1=C(Br)/C(=C/Br)OC1=O
Activity [1]: 80.9%
Activity [2]: 0.01%
Activity [3]: 98.3%
Activity [4]: Dose-dependent effect
Activity [5]: Active
Activity [6]: Dose-dependent effect
Activity [7]: inactive
Activity [8]: Dose-dependent effect
Activity [9]: inactive
Activity [10]: 91.6%
Activity [11]: 88.5%
Activity [12]: 96.5%
growth inhibition (GI) [13]: inactive
Activity [14]: inactive
Activity [15]: Active
Activity [16]: Dose-dependent effect
Activity [17]: Active
Activity [18]: Active
Activity [19]: Dose-dependent effect
Activity [20]: inactive
Activity [21]: Active
Activity [22]: Active
